Read-outs that look alike come from different tables or passages of the source.
Columns and labels:
rats = settings: p.o., cited from earlier work
[1] = system: Neisseria gonorrhoeae CDC panel consisting of 48 isolates; assay: Agar dilution MIC, CDC panel of 48 isolates (Example 2); assay type: cell-based; settings: for MIC: Neisseria gonorrhoeae, read-out: Minimal inhibitory concentration
Protocol: Neisseria gonorrhoeae (Neisseria gonocossus) were tested for antimicrobial susceptibility using agar dilution as described by the Clinical and Laboratory Standards Institute (CLSI), see reference (4).
The concentrations tested for each compound encompass the reported interpretive breakpoints and consist of 8 or more doubling dilutions, ensuring that there is one dilution below the lowest value of QC.
GC agar base +1% defined growth supplement.
Initial screening strains: Neisseria gonorrhoeae CDC panel consisting of 48 isolates. The strains were provided by Clinical and Environmental Microbiology Branch, Division of Healthcare Quality Promotion, CDC (Atlanta, US).
Dilution scheme for reference method: Prepare intermediate 100× antimicrobial agent solutions by making successive serial twofold dilutions. Then, add one part of the 100× antimicrobial solution to […] of molten agar. Plates containing no antimicrobial agent solutions are made for use as growth controls. It is important that no longer than one hour elapses between the time that the stock solution is thawed, the dilutions are prepared and added to the base medium and the plates are poured, see reference (5).
• Add appropriate dilutions of antimicrobial solution to molten test agars that have been allowed to equilibrate in a water bath to 50° C. • Mix the agar and antimicrobial solution thoroughly and pour (20 mL) into Petri dishes on a level surface. Pour quickly after mixing to prevent cooling and partial solidification in the mixing container. Avoid generating bubbles when mixing. • Allow the agar to solidify at room temperature and store them in sealed plastic bags at 2 to 8° C. for up to five days. Preferably use with 24 hours. • Allow plates stored at 2 to 8° C. to equilibrate to room temperature before use. Make certain that the agar surface is dry before inoculating the plates. If necessary, place the plates in an incubator or laminar flow hood for approximately 30 minutes with their lids ajar to hasten drying of the agar surface.
Inoculum preparation: Prepare a standardized inoculum for the agar dilution method by suspending isolated colonies of Neisseria gonorrhoeae selected from an 18-24 hour-old chocolate agar plate directly in Mueller Hinton Broth (MHB) to achieve the density equivalent to a 0.5 McFarland standard and adjusted to obtain a cell density of ˜1-2×10^8 CFU/mL. For N. gonorrhoeae, the McFarland solutions are made at a reading of ˜0.80 in densitometer (Grant Instruments DEN-1B Densitometer) because these values have been evaluated and correspond to the desired CFU/mL count.
Dilution of inoculum suspension: Cultures adjusted to the 0.5 McFarland standard contain approximately 1 to 2×10^8 CFU/mL with most species, and the final inoculum required is 10^4 CFU per spot. When using replicators with 3-mm pins that deliver ˜2.5 μL, dilute the 0.5 McFarland suspension 1:10 in sterile MHB to obtain a concentration of 10^7 CFU/mL. The final inoculum on the agar will be approximately 10^4 CFU per spot. Use the adjusted suspensions for final inoculation within 60 minutes of preparation, see reference (5).
The following procedure was followed: • Arrange the tubes containing the adjusted and diluted bacterial suspensions (10^7 CFU/mL) in order in a rack. Place an aliquot of each well-mixed suspension into the corresponding well in the replicator inoculum block (if being used). • Mark the agar plates for orientation of the inoculum spots. • Apply an aliquot of each inoculum (2.5 μL) to the agar surface, either with an inocula-replicating device or pipette, to obtain a final concentration of ˜10^4 CFU/spot. • Inoculate a growth-control plate (no antimicrobial agent) first and then, starting with the lowest concentration, inoculate the plates containing the different antimicrobial concentrations. […]

rabbits = settings: p.o.; cited from earlier work
mice = settings: p.o.; cited from earlier work

For O=C(Nc1cc(Cl)cc(Cl)c1O)c1c(O)c(Cl)cc(Cl)c1Cl [Oxyclosanide, oxyclozanide], the “LD50, median” value (rats; median of the studies) is given as 2250 mg/kg, the LD50 (rats) is given as 980 to 3519 mg/kg and the MIC ([1]; Neisseria gonorrhoeae strain CDC # 165) is given as no more than 0.25 µg/mL. The MIC ([1]; Neisseria gonorrhoeae strain CDC # 166) was no more than 0.25 µg/mL, the MIC ([1]; Neisseria gonorrhoeae strain CDC # 167) was no more than 0.25 µg/mL and the MIC ([1]; Neisseria gonorrhoeae strain CDC # 169) was no more than 0.25 µg/mL. It also gave an MIC ([1]; Neisseria gonorrhoeae strain CDC # 170) of no more than 0.25 µg/mL, an MIC ([1]; Neisseria gonorrhoeae strain CDC # 171) of no more than 0.25 µg/mL and an MIC ([1]; Neisseria gonorrhoeae strain CDC # 172) of no more than 0.25 µg/mL. It also gave an MIC ([1]; Neisseria gonorrhoeae strain CDC # 173) of no more than 0.25 µg/mL, an MIC ([1]; Neisseria gonorrhoeae strain CDC # 174) of no more than 0.25 µg/mL and an MIC ([1]; Neisseria gonorrhoeae strain CDC # 175) of no more than 0.25 µg/mL. It also gave an MIC ([1]; Neisseria gonorrhoeae strain CDC # 176) of no more than 0.25 µg/mL, an MIC ([1]; Neisseria gonorrhoeae strain CDC # 177) of no more than 0.25 µg/mL and an MIC ([1]; Neisseria gonorrhoeae strain CDC # 178) of no more than 0.25 µg/mL. It also gave an MIC ([1]; Neisseria gonorrhoeae strain CDC # 179) of no more than 0.25 µg/mL, an MIC ([1]; Neisseria gonorrhoeae strain CDC # 180) of no more than 0.25 µg/mL and an MIC ([1]; Neisseria gonorrhoeae strain CDC # 181) of no more than 0.25 µg/mL. For the same compound, the MIC ([1]; Neisseria gonorrhoeae strain CDC # 182) was no more than 0.25 µg/mL, the MIC ([1]; Neisseria gonorrhoeae strain CDC # 183) was no more than 0.25 µg/mL and the MIC ([1]; Neisseria gonorrhoeae strain CDC # 184) was no more than 0.25 µg/mL. It also gave an MIC ([1]; Neisseria gonorrhoeae strain CDC # 185) of no more than 0.25 µg/mL, an MIC ([1]; Neisseria gonorrhoeae strain CDC # 186) of no more than 0.25 µg/mL and an MIC ([1]; Neisseria gonorrhoeae strain CDC # 187) of no more than 0.25 µg/mL. The MIC ([1]; Neisseria gonorrhoeae strain CDC # 188) was no more than 0.25 µg/mL, the MIC ([1]; Neisseria gonorrhoeae strain CDC # 189) was no more than 0.25 µg/mL and the MIC ([1]; Neisseria gonorrhoeae strain CDC # 190) was no more than 0.25 µg/mL. It also gave an MIC ([1]; Neisseria gonorrhoeae strain CDC # 191) of no more than 0.25 µg/mL, an MIC ([1]; Neisseria gonorrhoeae strain CDC # 192) of no more than 0.25 µg/mL and an MIC ([1]; Neisseria gonorrhoeae strain CDC # 193) of no more than 0.25 µg/mL. For the same compound, the MIC ([1]; Neisseria gonorrhoeae strain CDC # 194) was no more than 0.25 µg/mL, the MIC ([1]; Neisseria gonorrhoeae strain CDC # 195) was no more than 0.25 µg/mL and the MIC ([1]; Neisseria gonorrhoeae strain CDC # 196) was no more than 0.25 µg/mL. The MIC ([1]; Neisseria gonorrhoeae strain CDC # 198) was no more than 0.25 µg/mL, the MIC ([1]; Neisseria gonorrhoeae strain CDC # 199) was no more than 0.25 µg/mL and the MIC ([1]; Neisseria gonorrhoeae strain CDC # 200) was no more than 0.25 µg/mL. For the same compound, the MIC ([1]; Neisseria gonorrhoeae strain CDC # 201) was no more than 0.25 µg/mL, the MIC ([1]; Neisseria gonorrhoeae strain CDC # 202) was no more than 0.25 µg/mL and the MIC ([1]; Neisseria gonorrhoeae strain CDC # 203) was no more than 0.25 µg/mL. For the same compound, the MIC ([1]; Neisseria gonorrhoeae strain CDC # 204) was no more than 0.25 µg/mL, the MIC ([1]; Neisseria gonorrhoeae strain CDC # 205) was no more than 0.25 µg/mL and the MIC ([1]; Neisseria gonorrhoeae strain CDC # 206) was no more than 0.25 µg/mL. For the same compound, the MIC ([1]; Neisseria gonorrhoeae strain CDC # 207) was no more than 0.25 µg/mL, the MIC ([1]; Neisseria gonorrhoeae strain CDC # 208) was no more than 0.25 µg/mL and the MIC ([1]; Neisseria gonorrhoeae strain CDC # 209) was no more than 0.25 µg/mL. It also gave an MIC ([1]; Neisseria gonorrhoeae strain CDC # 210) of no more than 0.25 µg/mL, an MIC ([1]; Neisseria gonorrhoeae strain CDC # 211) of no more than 0.25 µg/mL and an MIC ([1]; Neisseria gonorrhoeae strain CDC # 212) of no more than 0.25 µg/mL. The MIC ([1]; Neisseria gonorrhoeae strain CDC # 213) was no more than 0.25 µg/mL, the MIC ([1]; Neisseria gonorrhoeae strain CDC # 214) was no more than 0.25 µg/mL and the “in vitro activity (in words)” value ([1]; against N. gonococcus (N. gonorrhoeae), Example 2 conclusion) was “Good in vitro activity”. The LD50 (rabbits) was 3200 mg/kg and the LD50 (mice) was 300 mg/kg.

— patent publication US20210137948A1, “TREATMENT OF INFECTIONS CAUSED BY NEISSERIA GONOCOCCUS USING A HALOGENATED SALICYLANILIDE” (priority 2018, published 2021)
